Experimental data from ChEMBL document CHEMBL1145331, “Synthesis of anthranylaldoxime derivatives as estrogen receptor ligands and computational prediction of binding modes” (J Med Chem, 2006).

Experiments:
[1] = biological target: T1, Estrogen receptor (Homo sapiens) (UniProt P03372); test: Displacement of [3H]estradiol from human ERalpha relative to estradiol
T1 sequence (whole entry): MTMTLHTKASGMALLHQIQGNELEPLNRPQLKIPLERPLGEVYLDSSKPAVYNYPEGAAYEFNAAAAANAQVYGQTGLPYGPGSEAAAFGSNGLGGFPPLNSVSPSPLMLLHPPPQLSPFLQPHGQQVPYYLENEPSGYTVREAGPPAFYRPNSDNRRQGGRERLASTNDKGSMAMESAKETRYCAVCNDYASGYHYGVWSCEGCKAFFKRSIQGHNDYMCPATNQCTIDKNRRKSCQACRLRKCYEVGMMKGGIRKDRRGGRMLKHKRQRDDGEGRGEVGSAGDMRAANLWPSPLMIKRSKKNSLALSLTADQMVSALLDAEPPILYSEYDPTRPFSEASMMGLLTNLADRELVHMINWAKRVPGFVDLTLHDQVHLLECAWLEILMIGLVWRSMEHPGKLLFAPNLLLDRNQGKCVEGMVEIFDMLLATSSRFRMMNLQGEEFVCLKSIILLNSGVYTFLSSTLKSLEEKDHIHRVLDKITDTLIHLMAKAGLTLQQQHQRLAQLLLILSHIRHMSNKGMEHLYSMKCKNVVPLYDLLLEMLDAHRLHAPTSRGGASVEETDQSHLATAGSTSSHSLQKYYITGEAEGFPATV

[2] = biological target: Estrogen receptor beta (Homo sapiens) (UniProt Q92731); test: Displacement of [3H]estradiol from human ERbeta relative to estradiol
Estrogen receptor beta (Homo sapiens), sequence (Q92731 whole entry): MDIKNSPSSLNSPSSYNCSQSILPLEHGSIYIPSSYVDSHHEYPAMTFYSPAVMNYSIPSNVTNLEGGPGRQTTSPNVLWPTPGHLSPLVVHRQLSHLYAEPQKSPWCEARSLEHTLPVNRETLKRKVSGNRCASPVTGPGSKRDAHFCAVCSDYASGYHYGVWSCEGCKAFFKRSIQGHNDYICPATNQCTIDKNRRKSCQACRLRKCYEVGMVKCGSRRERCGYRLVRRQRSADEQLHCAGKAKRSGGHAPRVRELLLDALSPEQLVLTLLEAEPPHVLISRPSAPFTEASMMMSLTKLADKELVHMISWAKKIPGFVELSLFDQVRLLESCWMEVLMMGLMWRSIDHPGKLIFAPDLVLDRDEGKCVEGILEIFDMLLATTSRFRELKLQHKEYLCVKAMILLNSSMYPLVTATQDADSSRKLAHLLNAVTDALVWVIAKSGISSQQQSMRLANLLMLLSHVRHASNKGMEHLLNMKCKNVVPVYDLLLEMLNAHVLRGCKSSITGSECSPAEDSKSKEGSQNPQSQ

[3] = biological target: T2, Estrogen receptor (Homo sapiens) (UniProt Q92731+P03372); test: Ratio of RBA for human ERbeta to RBA for human ERalpha; format: protein assay
T2 sequence (Q92731 whole entry, looked up, one chain of several): as the sequence (Q92731 whole entry) above

[4] = biological target: T3, Estrogen receptor (Homo sapiens, UniProt P03372); test: Displacement of [3H]estradiol from human ERalpha
T3 sequence (P03372 whole entry): T1 sequence (whole entry)

[5] = biological target: T2, Estrogen receptor (Homo sapiens); test: Ratio of RBA for human ERalpha to RBA for human ERbeta; format: protein assay
[6] = biological target: T2, Estrogen receptor (Homo sapiens); test: Ratio of Kd for human ERalpha to Kd for human ERbeta; format: protein assay

Row | relative binding affinity (RBA) [1] | relative binding affinity (RBA) [2] | Selectivity ratio [3] | Kd [4] | Selectivity ratio [5] | Selectivity ratio [6] | Compound
1 | 0.95 | 1.86 | 2 | – | – | – | CNc1c(/C=N/O)ccc(-c2ccc(C)cc2)c1-c1ccc(C)cc1
2 | 5.38 | 1.11 | – | 3.7 nM | – | – | CNc1c(/C=N/O)ccc(-c2ccc(O)cc2)c1-c1ccccc1
3 | 0.14 | 0.05 | – | – | – | – | CNc1c(/C=N/O)ccc(-c2cccc(O)c2)c1-c1cccc(O)c1
4 | 2.33 | 0.47 | – | – | – | – | CNc1c(/C=N/O)ccc(-c2ccc(OC)cc2)c1-c1ccc(OC)cc1
5 | 1.17 | 0.72 | – | – | – | – | CNc1c(/C=N/O)ccc(-c2ccccc2)c1-c1ccc(O)cc1
6 | 3.91 | 2.13 | – | – | 2 | – | CNc1c(/C=N/O)ccc(-c2cccc(C)c2)c1-c1cccc(C)c1
7 | 1.96 | 0.14 | – | – | – | 36 | CNc1c(/C=N/O)ccc(-c2ccc(O)cc2)c1-c1ccc(O)cc1
8 | 0.65 | 0.14 | – | – | – | – | CNc1c(/C=N/O)ccc(-c2cccc(OC)c2)c1-c1cccc(OC)c1
